Results as given in PubChem BioAssay (NCI).
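The compound was tested at five concentrations on cells cultured in 96-well plates, with a 48-hour exposure period. The concentration for 50% growth inhibition is given as GI50. TGI marks complete inhibition of growth.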

Legend:
Test in all cases: NCI tumour cell line growth inhibition, 48 h
OVCAR-8 ovarian = tested on: OVCAR-8 ovarian
HT29 colon = tested on: HT29 colon
RXF 393 renal = tested on: RXF 393 renal
PC-3 prostate = tested on: PC-3 prostate
MOLT-4 leukemia = tested on: MOLT-4 leukemia
SF-268 CNS = tested on: SF-268 CNS
SF-295 CNS = tested on: SF-295 CNS
HOP-92 NSCLC = tested on: HOP-92 NSCLC
A498 renal = tested on: A498 renal
U251 CNS = tested on: U251 CNS
EKVX NSCLC = tested on: EKVX NSCLC
T-47D breast = tested on: T-47D breast
NCI-H226 lung = tested on: NCI-H226 lung
UACC-62 melanoma = tested on: UACC-62 melanoma
KM12 colon = tested on: KM12 colon
M14 melanoma = tested on: M14 melanoma
BT-549 breast = tested on: BT-549 breast
A549 NSCLC = tested on: A549 NSCLC
HS 578T breast = tested on: HS 578T breast
OVCAR-5 ovarian = tested on: OVCAR-5 ovarian
COLO 205 colon = tested on: COLO 205 colon
SK-OV-3 ovarian = tested on: SK-OV-3 ovarian
SNB-19 CNS = tested on: SNB-19 CNS
HCT-15 colon = tested on: HCT-15 colon
OVCAR-3 ovarian = tested on: OVCAR-3 ovarian
IGROV1 ovarian = tested on: IGROV1 ovarian
DU-145 prostate = tested on: DU-145 prostate
SN12C renal = tested on: SN12C renal
NCI-H460 lung = tested on: NCI-H460 lung
SK-MEL-5 melanoma = tested on: SK-MEL-5 melanoma
HCT-116 colon = tested on: HCT-116 colon
MDA-MB-231 breast = tested on: MDA-MB-231 breast
TK-10 renal = tested on: TK-10 renal
OVCAR-4 ovarian = tested on: OVCAR-4 ovarian
MALME-3M melanoma = tested on: MALME-3M melanoma
UACC-257 melanoma = tested on: UACC-257 melanoma
RPMI-8226 leukemia = tested on: RPMI-8226 leukemia
MCF7 breast = tested on: MCF7 breast
CAKI-1 renal = tested on: CAKI-1 renal
UO-31 renal = tested on: UO-31 renal
ACHN renal = tested on: ACHN renal
LOX IMVI melanoma = tested on: LOX IMVI melanoma
SK-MEL-2 melanoma = tested on: SK-MEL-2 melanoma
SW-620 colon = tested on: SW-620 colon
SK-MEL-28 melanoma = tested on: SK-MEL-28 melanoma
HOP-62 NSCLC = tested on: HOP-62 NSCLC
HCC-2998 colon = tested on: HCC-2998 colon
NCI/ADR-RES ovarian = tested on: NCI/ADR-RES ovarian
786-0 renal = tested on: 786-0 renal
SNB-75 CNS = tested on: SNB-75 CNS
SF-539 CNS = tested on: SF-539 CNS
MDA-MB-435 = tested on: MDA-MB-435
NCI-H23 lung = tested on: NCI-H23 lung
CCRF-CEM leukemia = tested on: CCRF-CEM leukemia
NCI-H522 lung = tested on: NCI-H522 lung

COC(=O)[C@@]1(C)CCC[C@]2(C)[C@H]3Cc4occc4[C@H](C)[C@@H]3CC[C@@]12O
GI50 (OVCAR-8 ovarian): 35 µM
TGI (OVCAR-8 ovarian): > 100 µM
GI50 (HT29 colon): 20.9 µM
TGI (HT29 colon): > 100 µM
GI50 (RXF 393 renal): 25 µM
TGI (RXF 393 renal): 93.1 µM
GI50 (PC-3 prostate): 26.1 µM
TGI (PC-3 prostate): > 100 µM
GI50 (MOLT-4 leukemia): 17.3 µM
TGI (MOLT-4 leukemia): 80.3 µM
GI50 (SF-268 CNS): 34 µM
TGI (SF-268 CNS): > 100 µM
GI50 (SF-295 CNS): 21.1 µM
TGI (SF-295 CNS): 66.8 µM
GI50 (HOP-92 NSCLC): 13.4 µM
TGI (HOP-92 NSCLC): 57.9 µM
GI50 (A498 renal): 17.9 µM
TGI (A498 renal): 46.6 µM
GI50 (U251 CNS): 18.1 µM
TGI (U251 CNS): 44 µM
GI50 (EKVX NSCLC): 27.7 µM
TGI (EKVX NSCLC): 71.3 µM
GI50 (T-47D breast): 26.4 µM
TGI (T-47D breast): > 100 µM
GI50 (NCI-H226 lung): 20.9 µM
TGI (NCI-H226 lung): 64.7 µM
GI50 (UACC-62 melanoma): 17.5 µM
TGI (UACC-62 melanoma): > 100 µM
GI50 (KM12 colon): 16 µM
TGI (KM12 colon): 32.8 µM
GI50 (M14 melanoma): 28.6 µM
TGI (M14 melanoma): > 100 µM
GI50 (BT-549 breast): 26.9 µM
TGI (BT-549 breast): 70.5 µM
GI50 (A549 NSCLC): 34.4 µM
TGI (A549 NSCLC): > 100 µM
GI50 (HS 578T breast): 20.1 µM
TGI (HS 578T breast): 41.4 µM
GI50 (OVCAR-5 ovarian): 73.7 µM
TGI (OVCAR-5 ovarian): > 100 µM
GI50 (COLO 205 colon): 33.1 µM
TGI (COLO 205 colon): > 100 µM
GI50 (SK-OV-3 ovarian): > 100 µM
TGI (SK-OV-3 ovarian): > 100 µM
GI50 (SNB-19 CNS): 95.5 µM
TGI (SNB-19 CNS): > 100 µM
GI50 (HCT-15 colon): 73.5 µM
TGI (HCT-15 colon): > 100 µM
GI50 (OVCAR-3 ovarian): 17.3 µM
TGI (OVCAR-3 ovarian): 59 µM
GI50 (IGROV1 ovarian): 30 µM
TGI (IGROV1 ovarian): > 100 µM
GI50 (DU-145 prostate): 58.7 µM
TGI (DU-145 prostate): > 100 µM
GI50 (SN12C renal): 21.1 µM
TGI (SN12C renal): 48 µM
GI50 (NCI-H460 lung): 16.3 µM
TGI (NCI-H460 lung): 49.2 µM
GI50 (SK-MEL-5 melanoma): 21.1 µM
TGI (SK-MEL-5 melanoma): 37.4 µM
GI50 (HCT-116 colon): 17.6 µM
TGI (HCT-116 colon): 42.5 µM
GI50 (MDA-MB-231 breast): 32.4 µM
TGI (MDA-MB-231 breast): > 100 µM
GI50 (TK-10 renal): 24.5 µM
TGI (TK-10 renal): > 100 µM
GI50 (OVCAR-4 ovarian): 92.3 µM
TGI (OVCAR-4 ovarian): > 100 µM
GI50 (MALME-3M melanoma): 21.3 µM
TGI (MALME-3M melanoma): 52.4 µM
GI50 (UACC-257 melanoma): 35.6 µM
TGI (UACC-257 melanoma): > 100 µM
GI50 (RPMI-8226 leukemia): 17.9 µM
TGI (RPMI-8226 leukemia): > 100 µM
GI50 (MCF7 breast): 18.2 µM
TGI (MCF7 breast): > 100 µM
GI50 (CAKI-1 renal): 41.8 µM
TGI (CAKI-1 renal): > 100 µM
GI50 (UO-31 renal): 37.5 µM
TGI (UO-31 renal): > 100 µM
GI50 (ACHN renal): 17.8 µM
TGI (ACHN renal): 50.2 µM
GI50 (LOX IMVI melanoma): 18.4 µM
TGI (LOX IMVI melanoma): 42.6 µM
GI50 (SK-MEL-2 melanoma): 26.8 µM
TGI (SK-MEL-2 melanoma): 72.4 µM
GI50 (SW-620 colon): 44.1 µM
TGI (SW-620 colon): > 100 µM
GI50 (SK-MEL-28 melanoma): > 100 µM
TGI (SK-MEL-28 melanoma): > 100 µM
GI50 (HOP-62 NSCLC): 33.7 µM
TGI (HOP-62 NSCLC): > 100 µM
GI50 (HCC-2998 colon): 34.3 µM
TGI (HCC-2998 colon): 89.7 µM
GI50 (NCI/ADR-RES ovarian): 68.4 µM
TGI (NCI/ADR-RES ovarian): > 100 µM
GI50 (786-0 renal): 45.8 µM
TGI (786-0 renal): > 100 µM
GI50 (SNB-75 CNS): 55.6 µM
TGI (SNB-75 CNS): > 100 µM
GI50 (SF-539 CNS): 19.9 µM
TGI (SF-539 CNS): 40.2 µM
GI50 (MDA-MB-435): 16.7 µM
TGI (MDA-MB-435): 38.7 µM
GI50 (NCI-H23 lung): 45.3 µM
TGI (NCI-H23 lung): > 100 µM
GI50 (CCRF-CEM leukemia): 37.2 µM
TGI (CCRF-CEM leukemia): > 100 µM
GI50 (NCI-H522 lung): 31.4 µM
TGI (NCI-H522 lung): 98.5 µM
